This note sets out measurements from the supplement of paper PMC11368000.

For the first assay, the system named is 20084 (donor line of iPSC-derived cardiomyocytes). As to the kind of experiment: POD (EC95) for loss of peak frequency (asystole) vs vehicle; higher = less potent (higher point of departure). The note with it: exposure time: 90 min. How it is done: (§1)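 Human iPSC-derived cardiomyocytes from 16 donors were exposed for 90 min at 37 °C to each PFAS at 0.1, 1, 10 and 100 µM in 0.5% DMSO, 384-well plates. Kinetic Ca2+ flux (FLIPR) and Hoechst nuclei counts were normalised to vehicle wells and fitted with a hierarchical Bayesian Hill model to give donor-specific PODs: EC05 for beat-rate increase or decrease and for decay-to-rise ratio increase (QT proxy), EC95 for peak-frequency loss (asystole), EC10 for total cell number loss. 0.03 µM is the lower bound.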
In the case of `O=C(O)C(F)(F)C(F)(F)C(F)(F)F` [Perfluorobutanoic_acid], the POD vs vehicle is above 100 µM.
Same read-out and setting: for `O=C(O)C(F)(F)C(F)(F)C(F)(F)C(F)(F)C(F)(F)C(F)(F)C(F)(F)C(F)(F)C(F)(F)F` [Perfluorodecanoic_acid] the value was above 100 µM; for `O=C(O)C(F)(F)C(F)(F)C(F)(F)C(F)(F)C(F)(F)C(F)(F)F` [Perfluoroheptanoic_acid], above 100 µM.
Same read-out and setting: then `NS(=O)(=O)C(F)(F)C(F)(F)C(F)(F)C(F)(F)C(F)(F)C(F)(F)F` [Perfluorohexanesulfonamide], with above 100 µM.
Same read-out and setting: for `O=S(=O)(O)C(F)(F)C(F)(F)C(F)(F)C(F)(F)C(F)(F)C(F)(F)F` [Perfluorohexanesulfonic_acid] the value was above 100 µM.
Take `O=C(O)C(F)(F)C(F)(F)C(F)(F)C(F)(F)C(F)(F)F` [Perfluorohexanoic_acid]: the POD vs vehicle was above 100 µM.
Regarding `O=C(O)C(F)(F)C(F)(F)C(F)(F)C(F)(F)C(F)(F)C(F)(F)C(F)(F)C(F)(F)F` [Perfluorononanoic_acid], the POD vs vehicle is above 100 µM.
In turn, `NC(=O)C(F)(F)C(F)(F)C(F)(F)C(F)(F)C(F)(F)C(F)(F)C(F)(F)F` [Perfluorooctanamide] yielded a POD vs vehicle above 100 µM.
On the same count and under the same terms, then `N=C(N)C(F)(F)C(F)(F)C(F)(F)C(F)(F)C(F)(F)C(F)(F)C(F)(F)F` [Perfluorooctanamidine], with above 100 µM.
`O=S(=O)(O)C(F)(F)C(F)(F)C(F)(F)C(F)(F)C(F)(F)C(F)(F)C(F)(F)C(F)(F)F` [Perfluorooctanesulfonic_acid] gave a POD vs vehicle above 100 µM.
Still for that read-out and setting: for `O=C(O)C(F)(F)C(F)(F)C(F)(F)C(F)(F)C(F)(F)C(F)(F)C(F)(F)F` [Perfluorooctanoic_acid] the value was above 100 µM; for `O=C(O)C(F)(F)C(F)(F)C(F)(F)C(F)(F)F` [Perfluoropentanoic_acid], above 100 µM; for `O=C(O)C(F)(F)C(F)(F)F` [Perfluoropropanoic_acid], above 100 µM.
Compound `O=C(O)C(F)(F)C(F)(F)C(F)(F)C(F)(F)C(F)(F)C(F)(F)C(F)(F)C(F)(F)C(F)(F)C(F)(F)F` [Perfluoroundecanoic_acid] displayed a POD vs vehicle above 100 µM.
`O=S(=O)([O-])C(F)(F)C(F)(F)C(F)(F)C(F)(F)F.[K+]` [Potassium_perfluorobutanesulfonate]: the POD vs vehicle was above 100 µM.

The test system of a further assay is 30171 (donor line of iPSC-derived cardiomyocytes). Described as above. The note with it: exposure time: 90 min. The protocol: as §1
`O=C(O)C(F)(F)C(F)(F)C(F)(F)F` [Perfluorobutanoic_acid] yielded a POD vs vehicle above 100 µM.
Regarding `O=C(O)C(F)(F)C(F)(F)C(F)(F)C(F)(F)C(F)(F)C(F)(F)C(F)(F)C(F)(F)C(F)(F)F` [Perfluorodecanoic_acid], the POD vs vehicle amounted to 36.5 µM.
Consider `O=C(O)C(F)(F)C(F)(F)C(F)(F)C(F)(F)C(F)(F)C(F)(F)F` [Perfluoroheptanoic_acid], for which the POD vs vehicle is above 100 µM.
`NS(=O)(=O)C(F)(F)C(F)(F)C(F)(F)C(F)(F)C(F)(F)C(F)(F)F` [Perfluorohexanesulfonamide] showed a POD vs vehicle of 49.3 µM.
On the same count and under the same terms, then `O=S(=O)(O)C(F)(F)C(F)(F)C(F)(F)C(F)(F)C(F)(F)C(F)(F)F` [Perfluorohexanesulfonic_acid], with above 100 µM; and `O=C(O)C(F)(F)C(F)(F)C(F)(F)C(F)(F)C(F)(F)F` [Perfluorohexanoic_acid], with above 100 µM; and `O=C(O)C(F)(F)C(F)(F)C(F)(F)C(F)(F)C(F)(F)C(F)(F)C(F)(F)C(F)(F)F` [Perfluorononanoic_acid], with 82.8 µM.
In the case of `NC(=O)C(F)(F)C(F)(F)C(F)(F)C(F)(F)C(F)(F)C(F)(F)C(F)(F)F` [Perfluorooctanamide], the POD vs vehicle is above 100 µM.
The same measure, in the same setting: then `N=C(N)C(F)(F)C(F)(F)C(F)(F)C(F)(F)C(F)(F)C(F)(F)C(F)(F)F` [Perfluorooctanamidine], with above 100 µM; and `O=S(=O)(O)C(F)(F)C(F)(F)C(F)(F)C(F)(F)C(F)(F)C(F)(F)C(F)(F)C(F)(F)F` [Perfluorooctanesulfonic_acid], with above 100 µM.
Turning to `O=C(O)C(F)(F)C(F)(F)C(F)(F)C(F)(F)C(F)(F)C(F)(F)C(F)(F)F` [Perfluorooctanoic_acid], the POD vs vehicle was above 100 µM.
In the case of `O=C(O)C(F)(F)C(F)(F)C(F)(F)C(F)(F)F` [Perfluoropentanoic_acid], the POD vs vehicle was above 100 µM.
On the same count and under the same terms, then `O=C(O)C(F)(F)C(F)(F)F` [Perfluoropropanoic_acid], with above 100 µM; and `O=C(O)C(F)(F)C(F)(F)C(F)(F)C(F)(F)C(F)(F)C(F)(F)C(F)(F)C(F)(F)C(F)(F)C(F)(F)F` [Perfluoroundecanoic_acid], with above 100 µM; and `O=S(=O)([O-])C(F)(F)C(F)(F)C(F)(F)C(F)(F)F.[K+]` [Potassium_perfluorobutanesulfonate], with above 100 µM.

The test system of another assay is 1368 (donor line of iPSC-derived cardiomyocytes). Described as above. The note with it: exposure time: 90 min. How it is done:
as §1
On to `O=C(O)C(F)(F)C(F)(F)C(F)(F)F` [Perfluorobutanoic_acid], for which the POD vs vehicle is above 100 µM.
As to `O=C(O)C(F)(F)C(F)(F)C(F)(F)C(F)(F)C(F)(F)C(F)(F)C(F)(F)C(F)(F)C(F)(F)F` [Perfluorodecanoic_acid], the POD vs vehicle is above 100 µM.
On the same count and under the same terms, then `O=C(O)C(F)(F)C(F)(F)C(F)(F)C(F)(F)C(F)(F)C(F)(F)F` [Perfluoroheptanoic_acid], with above 100 µM.
In turn, `NS(=O)(=O)C(F)(F)C(F)(F)C(F)(F)C(F)(F)C(F)(F)C(F)(F)F` [Perfluorohexanesulfonamide] yielded a POD vs vehicle above 100 µM.
Same read-out and setting: for `O=S(=O)(O)C(F)(F)C(F)(F)C(F)(F)C(F)(F)C(F)(F)C(F)(F)F` [Perfluorohexanesulfonic_acid] the value was above 100 µM.
Same read-out and setting: for `O=C(O)C(F)(F)C(F)(F)C(F)(F)C(F)(F)C(F)(F)F` [Perfluorohexanoic_acid] the value was above 100 µM; for `O=C(O)C(F)(F)C(F)(F)C(F)(F)C(F)(F)C(F)(F)C(F)(F)C(F)(F)C(F)(F)F` [Perfluorononanoic_acid], above 100 µM.
